Reference: publication PMC3853718 (Journal of Translational Medicine, 2013)

Test system: subjects with advanced malignancies
Test: Phase 1 dose escalation: toxicity, safety and tolerability (DLT, MAD, RP2D, AEs)
Details: for TEAE: Abdominal distension / TEAE: Abdominal pain / TEAE: Anemia / TEAE: Asthenia / TEAE: Back pain / TEAE: Constipation / TEAE: Cough / TEAE: Decreased appetite / TEAE: Dehydration / TEAE: Diarrhea / TEAE: Dizziness / TEAE: Dyspnea / TEAE: Fatigue / TEAE: Flatulence / TEAE: Hyperbilirubinemia / TEAE: Hyperglycemia / TEAE: Hyperuricemia / TEAE: Hypokalemia / TEAE: Hypophosphatemia / TEAE: Increased ALP / TEAE: Increased ALT / TEAE: Increased AST / TEAE: Nausea / TEAE: Neutropenia / TEAE: Peripheral edema / TEAE: Pyrexia / TEAE: Subjects with any AE / TEAE: Urinary tract infection / TEAE: Vomiting / TEAE: Weight decreased: ≤ 5.08 mg/m^2 (n = 22)
Description: Subjects continued on treatment until there was disease progression, unacceptable toxicity, or the subject withdrew consent. The trial employed an accelerated titration design [16] starting at a dose of 0.33 mg/m^2 (one-sixth of the highest nontoxic dose in dogs).
the dose was doubled in sequential subjects until a DLT was observed or a subject experienced grade 2 toxicity [16]. In the case of an observed grade 2 toxicity, a second subject was enrolled at the same dose level. If the second subject also experienced a grade 2 toxicity, 2 additional subjects were accrued at that dose level for a total of 4 subjects. […] Each subject was allocated to only a single dose level of drug. Dose delay or modification was permitted based on laboratory and clinical assessment performed on the day of treatment.
Dose-limiting toxicities were determined during the first cycle for each dose level. A DLT was defined as any grade 3 or 4 hematologic toxicity lasting for at least 1 week, or as any grade 3 or 4 nonhematologic toxicity. […] Normal alkaline phosphatase level (< grade 1) at screening that rose to greater than or equal to grade 3; grade 1 or 2 alkaline phosphatase level at screening that rose to grade 4; grade 1 or 2 aspartate aminotransferase (AST) and/or alanine aminotransferase (ALT) levels at screening that doubled from baseline to become greater than or equal to grade 3; and any other abnormal nonhematology laboratory value greater than or equal to grade 3 that required medical intervention to treat, led to hospitalization, or persisted for at least 1 week were also considered DLTs.
Adverse events were graded based on the National Cancer Institute Common Terminology Criteria for Adverse Events (NCI CTCAE version 3.0) and were coded using the Medical Dictionary for Regulatory Activities (MedDRA version 13.0).

## CCc1cnn2c(NCc3ccc[n+]([O-])c3)cc(N3CCCC[C@H]3CCO)nc12 [dinaciclib]
Dose level 14 mg/m^2, 5 subjects
  Subjects with DLT in cycle 1: 2
RP2D 12 mg/m^2, 11 subjects
  treatment-related AE: anemia: 5 [45%] subjects [%]
  treatment-related AE: asthenia: 3 [27%] subjects [%]
  treatment-related AE: fatigue: 4 [36%] subjects [%]
  treatment-related AE: hyperuricemia: 3 [27%] subjects [%]
  treatment-related AE: nausea: 3 [27%] subjects [%]
  treatment-related AE: neutropenia: 4 [36%] subjects [%]
  treatment-related AE: pyrexia: 3 [27%] subjects [%]
  treatment-related AE: vomiting: 3 [27%] subjects [%]
Subject 2901, Breast carcinoma, 0.33 mg/m^2, regardless of causality
  Serious adverse events: Anemia, confusion, lethargy
Subject 2914, Ovarian epithelial carcinoma, 3.63 mg/m^2, regardless of causality
  Serious adverse events: Constipation, nausea, abdominal pain, vomiting
Subject 2915, Adenocarcinoma, 3.63 mg/m^2, regardless of causality
  Serious adverse events: Hypocalcemia, hypokalemia, hypophosphatemia, coagulation time prolonged
Subject 2919, Colon cancer, 3.63 mg/m^2, regardless of causality
  Serious adverse events: Back pain, chest pain, dyspnea
Subject 2920, Melanoma, 3.63 mg/m^2, regardless of causality
  Serious adverse events: Cholelithiasis, liver disorder
Subject 2922, Ovarian epithelial cancer, 3.63 mg/m^2, regardless of causality
  Serious adverse events: Intestinal ischemia, pericardial effusion
Subject 2926, Pelvic sarcoma, 7.11 mg/m^2, regardless of causality
  Serious adverse events: Deep vein thrombosis, anemia
Subject 2927, Gastric adenocarcinoma, 7.11 mg/m^2, regardless of causality
  Serious adverse events: Vomiting, aspiration
Subject 2928, Gastrointestinal stromal tumor, 7.11 mg/m^2, regardless of causality
  Serious adverse events: Gastric ulcer, hematemesis, asthenia, sepsis, dyspnea, mental status changes, overdose
Subject 2930, SCLC, 7.11 mg/m^2, regardless of causality
  Serious adverse events: Cardiac arrest
Subject 2931, Esophageal carcinoma, 7.11 mg/m^2, regardless of causality
  Serious adverse events: Esophageal obstruction, pyrexia, hemorrhagic anemia
Subject 2937, Adenoid cyst carcinoma, 14 mg/m^2, regardless of causality
  Serious adverse events: Pneumothorax, cardiac tamponade, pneumoperitoneum, intestinal perforation, peritonitis, sepsis
Subject 2940, Breast carcinoma, 14 mg/m^2, regardless of causality
  Serious adverse events: Death
Subject 2945, NSCLC, 12 mg/m^2, regardless of causality
  Serious adverse events: Cerebrovascular accident
Subject 2947, Colorectal cancer, 12 mg/m^2, regardless of causality
  Serious adverse events: Pelvic abscess, septic shock, deep vein thrombosis
Subject 2950, Colon cancer, 12 mg/m^2, regardless of causality
  Serious adverse events: Deep vein thrombosis, bradycardia, respiratory failure, syncope, tumor lysis syndrome
Subject 2951, Ovarian metastatic cancer, 12 mg/m^2, regardless of causality
  Serious adverse events: Anemia, neutropenic sepsis, sepsis, gastrointestinal hemorrhage, diarrhea, bacterial infection, neutropenia, thrombocytopenia
All dose levels
  SAE: anemia: 3 (6%) subjects (%)
  SAE: deep vein thrombosis: 3 (6%) subjects (%)
  SAE: sepsis: 3 (6%) subjects (%)
  grade 3 or 4 treatment-related AE: hyperuricemia: 3 [6%] subjects [%]
  grade 3 or 4 treatment-related AE: neutropenia: 5 [10%] subjects [%]
  subjects with AEs leading to discontinuation of treatment: 6 (13%) subjects (%)
  subjects with grade 3 or 4 treatment-related AEs: 16 subjects
  subjects with serious AEs (SAEs): 17 (33%) subjects (%)
  treatment-related AE: anemia: 10 [21%] subjects [%]
  treatment-related AE: fatigue: 7 [15%] subjects [%]
  treatment-related AE: nausea: 16 [33%] subjects [%]
  treatment-related AE: neutropenia: 8 [17%] subjects [%]
  treatment-related AE: vomiting: 8 [17%] subjects [%]
All dose levels, 48 treated
  subjects reporting treatment-emergent adverse events: 47 (98%) subjects (%)
  subjects with AEs possibly related to study drug: 35 (73%) subjects (%)
At 1.32 mg/m^2
  instances of grade 2 toxicity: 2
Of 52 enrolled, considered unlikely related to study treatment
  deaths due to disease progression: 7 [13%] subjects [%]
Of 52 enrolled, deemed unlikely related to dinaciclib, one subject never treated
  deaths due to AEs: 4 (8%) subjects (%)
Of the 52 subjects enrolled
  subjects who died during this study: 21%
All grades
  TEAE: Abdominal distension: 3 (14) n (%)
  TEAE: Abdominal pain: 4 (18) n (%)
  TEAE: Anemia: 8 (36) n (%)
  TEAE: Asthenia: 4 (18) n (%)
  TEAE: Back pain: 8 (36) n (%)
  TEAE: Constipation: 5 (23) n (%)
  TEAE: Cough: 3 (14) n (%)
  TEAE: Decreased appetite: 9 (41) n (%)
  TEAE: Dehydration: 8 (36) n (%)
  TEAE: Diarrhea: 3 (14) n (%)
  TEAE: Dizziness: 0 n (%)
  TEAE: Dyspnea: 3 (14) n (%)
  TEAE: Fatigue: 7 (32) n (%)
  TEAE: Flatulence: 3 (14) n (%)
  TEAE: Hyperbilirubinemia: 5 (23) n (%)
  TEAE: Hyperglycemia: 1 (5) n (%)
  TEAE: Hyperuricemia: 1 (5) n (%)
  TEAE: Hypokalemia: 2 (9) n (%)
  TEAE: Hypophosphatemia: 4 (18) n (%)
  TEAE: Increased ALP: 3 (14) n (%)
  TEAE: Increased ALT: 3 (14) n (%)
  TEAE: Increased AST: 3 (14) n (%)
  TEAE: Nausea: 6 (27) n (%)
  TEAE: Neutropenia: 0 n (%)
  TEAE: Peripheral edema: 3 (14) n (%)
  TEAE: Pyrexia: 3 (14) n (%)
  TEAE: Subjects with any AE: 21 (95) n (%)
  TEAE: Urinary tract infection: 5 (23) n (%)
  TEAE: Vomiting: 2 (9) n (%)
  TEAE: Weight decreased: 4 (18) n (%)
Grade 3–4
  TEAE: Abdominal distension: 0 n (%)
  TEAE: Abdominal pain: 1 (5) n (%)
  TEAE: Anemia: 1 (5) n (%)
  TEAE: Asthenia: 2 (9) n (%)
  TEAE: Back pain: 3 (14) n (%)
  TEAE: Constipation: 0 n (%)
  TEAE: Cough: 0 n (%)
  TEAE: Decreased appetite: 0 n (%)
  TEAE: Dehydration: 0 n (%)
  TEAE: Diarrhea: 0 n (%)
  TEAE: Dizziness: 0 n (%)
  TEAE: Dyspnea: 1 (5) n (%)
  TEAE: Fatigue: 2 (9) n (%)
  TEAE: Flatulence: 0 n (%)
  TEAE: Hyperbilirubinemia: 3 (14) n (%)
  TEAE: Hyperglycemia: 0 n (%)
  TEAE: Hyperuricemia: 1 (5) n (%)
  TEAE: Hypokalemia: 1 (5) n (%)
  TEAE: Hypophosphatemia: 3 (14) n (%)
  TEAE: Increased ALP: 1 (5) n (%)
  TEAE: Increased ALT: 1 (5) n (%)
  TEAE: Increased AST: 1 (5) n (%)
  TEAE: Nausea: 0 n (%)
  TEAE: Neutropenia: 0 n (%)
  TEAE: Peripheral edema: 0 n (%)
  TEAE: Pyrexia: 0 n (%)
  TEAE: Subjects with any AE: 11 (50) n (%)
  TEAE: Urinary tract infection: 0 n (%)
  TEAE: Vomiting: 1 (5) n (%)
  TEAE: Weight decreased: 0 n (%)
